Values joined by “and” are separate entries in the source; they are usually repeats but may differ in a detail not shown here. Identical values can stand only once.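 Interpolation was linear, between the two tested concentrations surrounding the appropriate level; five concentrations were tested over 48 hours in 96-well plates. GI50 = concentration required for 50% inhibition of growth. TGI denotes the concentration required for complete inhibition of growth.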
How the values were obtained:
Assay in all cases: growth of human tumour cells (NCI), 48 h
[1] = tested on: A549 NSCLC
[2] = tested on: ACHN renal
[3] = tested on: CAKI-1 renal
[4] = tested on: M14 melanoma
[5] = tested on: NCI-H460 lung
[6] = tested on: OVCAR-5 ovarian
[7] = tested on: RPMI-8226 leukemia
[8] = tested on: SK-MEL-28 melanoma
[9] = tested on: SK-OV-3 ovarian
[10] = tested on: SW-620 colon

SMILES	TGI [1]	TGI [2]	TGI [3]	TGI [4]	TGI [5]	TGI [6]	TGI [7]	TGI [8]	TGI [9]	TGI [10]	GI50 [1] [µM]	GI50 [2] [µM]	GI50 [3] [µM]	GI50 [4] [µM]	GI50 [5] [µM]	GI50 [6] [µM]	GI50 [7]	GI50 [8] [µM]	GI50 [9] [µM]	GI50 [10]
CC1OC(n2cc(I)c(=O)[nH]c2=O)C=CC1=O (stereo not given)	72.6 µM	31.5 µM	29.5 µM	30.6 µM	35.1 µM	39.7 µM	38.7 µM	29.2 µM	73.2 µM	26.8 µM	–	–	–	–	–	–	–	–	–	–
O=C1CCCC(=O)C1C(=O)c1ccc(C(F)(F)F)cc1[N+](=O)[O-]	> 100 µM	> 100 µM	> 100 µM	> 100 µM	> 100 µM	> 100 µM	> 100 µM	> 100 µM	> 100 µM	> 100 µM	> 100	> 100	> 100	> 100	> 100	> 100	> 100 µM	> 100	> 100	> 100 µM
N#CC(C#N)=Cc1ccc(Oc2ccccc2)cc1	> 100 µM	> 31.6 µM	> 100 µM	47.2 µM	> 100 µM	> 100 µM	57.3 µM	25.3 µM	> 100 µM	72.3 µM	–	–	–	–	–	–	–	–	–	–
COC(=O)C(C(=O)C(=O)Nc1ccc([N+](=O)[O-])cc1)c1nc2cc(C)c(C)cc2[nH]c1=O (stereo not given)	> 100 µM	> 100 µM	> 100 µM	> 100 µM	> 100 µM	> 100 µM	> 100 µM	> 100 µM	> 100 µM	> 100 µM	–	–	–	–	–	–	–	–	–	–
COC(=O)C1=C(C)N(NC(=O)c2cccc(Cl)c2)C(C)(O)C12CCOC2=O (stereo not given)	> 100 µM	> 100 µM	> 100 µM	> 100 µM	> 100 µM	> 100 µM	> 100 µM	> 100 µM	> 100 µM	> 100 µM	–	–	–	–	–	–	–	–	–	–
CCOc1ccc(N=Nc2c(-c3ccccc3)nn(C(=O)CC(=O)Nc3cccc(C)c3)c2-c2ccccc2)cc1	> 100 µM	> 100 µM	> 100 µM	> 100 µM	> 100 µM	> 100 µM	> 100 µM	> 100 µM	> 100 µM	> 100 µM	–	–	–	–	–	–	–	–	–	–
CN1CCN(CCCOc2ccc3nc(Nc4ccc(C(F)(F)F)c(Cl)c4)ccc3c2)CC1	3.48 µM	3.31 µM	3.82 µM	3.32 µM	4.14 µM	3.75 µM	4.12 µM	3.89 µM	3.49 µM	3.33 µM	1.92	1.74	1.72	1.71	1.88	1.8	1.75 µM	1.88	1.81	1.71 µM
O=C1C(Cl)=C(Nc2ccccn2)C(=O)c2ccccc21	37 µM	9.93 µM	18.8 µM	3.84 µM	11.4 µM	23.2 µM	7.03 µM	3.92 µM	26.9 µM	5.16 µM	9.02	3	3.82	2.07	3.25	7.42	2.15 µM	2.09	13.9	2.29 µM
CC(=O)OC1CC(C)c2c(Cl)ncnc21 (stereo not given)	> 100 µM	> 100 µM	> 100 µM	> 100 µM	> 100 µM	> 100 µM	> 100 µM	> 100 µM	> 100 µM	> 100 µM	> 100	> 100	45.7	> 100	> 100	> 100	> 100 µM	> 100	> 100	> 100 µM
Cc1ccc(C(CC(=O)c2ccccc2)C(C(=O)c2ccccc2)C(c2ccc(C)cc2)C2C(=O)NC(=S)NC2=O)cc1 (stereo not given)	> 50 µM	> 50 µM	35 µM	> 50 µM	> 50 µM	> 50 µM	> 50 µM	> 50 µM	> 50 µM	> 50 µM	12.8	11.3	7.7	27.2	6.66	31	44.2 µM	> 50	> 50	19.4 µM
COc1ccc(CCN2COc3ccc4ccc(=O)oc4c3C2)cc1OC	> 100 µM	> 100 µM	> 100 µM	> 100 µM	> 100 µM	> 100 µM	52.8 µM	> 100 µM	> 100 µM	69 µM	–	–	–	–	–	–	–	–	–	–
C=CCCC(O)c1ccc(CCCCCCCCCCC)o1 (stereo not given)	35.1 µM	28.9 µM	31.5 µM	32.4 µM	> 100 µM	35.9 µM	38.6 µM	29.6 µM	33.8 µM	32.2 µM	18.6	15.6	16	17.2	28.9	18.3	14 µM	14.9	16.9	17 µM
CN1CCN(CCCN2c3ccccc3Sc3ccc(C(F)(F)F)cc32)CC1	6.47 µM and 24.5 µM and 25.2 µM	4.67 µM and 23.3 µM and 24.7 µM	3.36 µM and 22.4 µM and 23 µM	3.53 µM and 3.38 µM and 3.35 µM	4.15 µM and 5.21 µM and 12.1 µM	4.28 µM and 24.9 µM and 23.2 µM	5.09 µM and 22.1 µM	3.27 µM and 3.46 µM and 3.58 µM	4.15 µM and 27.7 µM and 28.2 µM	4.44 µM and 18.1 µM and 21.4 µM	2.31	2.1	1.55	–	1.99	1.99	2.21 µM and 2.06 µM and 6.37 µM	–	1.92	1.85 µM and 3.67 µM and 8.47 µM
O=C(NCc1cccs1)OC1CC2CCC1C2 (stereo not given)	> 100 µM	> 100 µM	> 100 µM	> 100 µM	> 100 µM	> 100 µM	> 100 µM	> 100 µM	> 100 µM	> 100 µM	–	–	–	–	–	–	–	–	–	–
C=C(CN(C)C)C(=O)c1ccc(OC)cc1	42.8 µM	3.01 µM	5.18 µM	5.66 µM	44.6 µM	29.8 µM	9.19 µM	8.63 µM	41.3 µM	5.08 µM	–	–	–	–	–	–	–	–	–	–
O=[N+]([O-])c1ccc(NN=C2c3ccccc3Cc3ccccc32)c([N+](=O)[O-])c1	> 100 µM	> 100 µM	> 100 µM	> 100 µM	> 100 µM	> 100 µM	> 100 µM	> 100 µM	> 100 µM	> 100 µM	–	–	–	–	–	–	–	–	–	–
CC(=O)Nc1ccc(S(=O)(=O)c2ccc(NC(C)=O)cc2)cc1	> 100 µM	> 100 µM	> 100 µM	> 100 µM	> 100 µM	> 100 µM	> 100 µM	> 100 µM	> 100 µM	> 100 µM	> 100	> 100	> 100	> 100	> 100	> 100	> 100 µM	> 100	> 100	> 100 µM
CC(C)N(C(=O)C12C3C4C5C3C1(C#N)C5C42)C(C)C (stereo not given)	> 100 µM	> 100 µM	> 100 µM	> 100 µM	> 100 µM	> 100 µM	> 100 µM	> 100 µM	> 100 µM	> 100 µM	–	–	–	–	–	–	–	–	–	–
Nc1ncnc2c1c(C(=O)NO)cn2C1OC(CO)C(O)C1O (stereo not given)	> 40.4 µM	1.15 µM	2.5 µM	1.53 µM	9.19 µM	–	–	3.63 µM	2.07 µM	> 31.7 µM	0.462	0.203	0.213	0.285	0.431	0.604	0.282 µM	0.479	0.239	0.252 µM
O=C1c2ccccc2CCC1(Br)Br	19.1 µM	2.55 µM	3.04 µM	5.12 µM	18.7 µM	3.25 µM	4.9 µM	4.65 µM	18.2 µM	1.53 µM	6.84	1.21	1.65	2.08	5.28	1.76	1.99 µM	2.08	6.12	0.384 µM
CCN1C(=O)C(N=[N+]=[N-])(c2ccccc2)C(=O)c2ccccc21 (stereo not given)	> 100 µM	> 100 µM	> 100 µM	> 100 µM	> 100 µM	> 100 µM	> 100 µM	> 100 µM	> 100 µM	> 100 µM	–	–	–	–	–	–	–	–	–	–
O=C(Nc1ccc(Cl)cc1F)c1cc(Cl)ccc1O	> 100 µM	> 88 µM	2.52 µM	2.78 µM	–	> 100 µM	1.75 µM	1.84 µM	8.6 µM	> 22.5 µM	1.34	0.532	0.298	0.437	0.44	2.74	0.302 µM	0.364	0.576	0.7 µM
O=C1C2C3CCC(C2C(=O)N1CO)C1C2C(=O)N(CO)C(=O)C2C31 (stereo not given)	> 67.6 µM	> 63 µM	> 100 µM	> 100 µM	> 54.5 µM	> 100 µM	47.7 µM	> 100 µM	> 100 µM	> 67.5 µM	–	–	–	–	–	–	–	–	–	–
O=C1C(Cl)=C(Nc2cccc(O)c2)C(=O)N1c1ccc(Cl)cc1Cl	> 100 µM	> 100 µM	45 µM	> 100 µM	> 100 µM	> 100 µM	30.7 µM	> 100 µM	> 100 µM	38.3 µM	46.3	30.6	12.9	47.6	27.5	40.2	7.55 µM	60.9	40.4	17.3 µM

— PubChem BioAssay (NCI)
